From US20030118577A1, “Use of analogues of superoxide dismutase for treating hepatocellular insufficiencies” (priority 2000, published 2003)

Experiments:
[1] = system: acute hepatic insufficiency induced by acetaminophen; experiment: Survival of mice after intraperitoneal acetaminophen (acute hepatic insufficiency); settings: for percentage of surviving animals: Group XV: APAP 1000 mg/kg, CuDIPS 10 mg/kg (P)
[2] = system: hepatic impairments resulting from the administration of galactosamine-LPS; settings: prior administration; MIESEL et al. 1995; cited from earlier work
[3] = system: hepatic impairments induced by the administration of acetaminophen or of galactosamine; settings: simultaneous administration; EP 0333490; cited from earlier work

Molecule: CC(C)c1cc(C(=O)[O-])c(O)c(C(C)C)c1.CC(C)c1cc(C(=O)[O-])c(O)c(C(C)C)c1.[Cu+2] [CuDIPS, Cu(II)-(diisopropylsalicylate)2]
- effect on survival rate, administered preventively ([1]; APAP 1000 mg/kg, 2 hours before (P)): does not significantly increase the survival rate
- percentage of surviving animals ([1]; time 0 h): 100%
- percentage of surviving animals ([1]; time 6 h): 100%
- percentage of surviving animals ([1]; time 8 h): 91.6%
- percentage of surviving animals ([1]; time 9 h): 83.3%
- percentage of surviving animals ([1]; time 10 h): 75%
- percentage of surviving animals ([1]; time 11 h): 58.3%
- percentage of surviving animals ([1]; time 12 h): 58.3%
- percentage of surviving animals ([1]; time 13 h): 41.6%
- percentage of surviving animals ([1]; time 14 h): 41.6%
- percentage of surviving animals ([1]; time 15 h): 41.6%
- percentage of surviving animals ([1]; time 16 h): 33.3%
- percentage of surviving animals ([1]; time 17 h): 33.3%
- percentage of surviving animals ([1]; time 18 h): 25%
- percentage of surviving animals ([1]; time 20 h): 25%
- percentage of surviving animals ([1]; time 22 h): 25%
- percentage of surviving animals ([1]; time 24 h): 25%

Molecule: C(=NCCCCN=Cc1ccccn1)c1ccccn1.[Cu+2].[O-][Cl+3]([O-])([O-])[O-] [CuPu(Py)2]
- hepatic impairments [2]: reduced

Molecule: CuZnSOD: copper-zinc superoxide dismutases, also known by the name superoxide dismutase-1
- hepatic impairments [3]: reduced
